This is an account of results in ChEMBL document CHEMBL1137738, “Synthesis of a series of 8-(substituted-phenyl)xanthines and a study on the effects of substitution pattern of phenyl substituents on affinity for adenosine A(1) and A(2A) receptors” (Eur J Med Chem, 2009).

One experiment concerns the target Adenosine receptor A2a (Homo sapiens, UniProt P29274). Briefly: biochemical.
For a further experiment, the target named is T1, Adenosine receptor A1 (Homo sapiens, UniProt P30542).
T1 sequence (P30542 whole entry): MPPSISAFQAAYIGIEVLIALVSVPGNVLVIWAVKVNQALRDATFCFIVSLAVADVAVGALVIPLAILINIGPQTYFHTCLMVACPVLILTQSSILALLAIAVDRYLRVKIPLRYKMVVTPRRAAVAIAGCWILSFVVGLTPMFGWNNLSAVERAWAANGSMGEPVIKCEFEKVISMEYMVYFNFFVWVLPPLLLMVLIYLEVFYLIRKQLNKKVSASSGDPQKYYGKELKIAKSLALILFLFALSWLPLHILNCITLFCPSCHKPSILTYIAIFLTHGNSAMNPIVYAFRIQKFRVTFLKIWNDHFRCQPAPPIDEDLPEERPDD
Briefly: biochemical.

For the next experiment, the species on record is Homo sapiens. Briefly: Selectivity ratio of Ki for human cloned adenosine A1 receptor to Ki for human cloned adenosine A2A receptor.
Experiment [1] in a line: Selectivity for adenosine A1 receptor over adenosine A2 receptor.

Adenosine receptor A2a, sequence (P29274 whole entry): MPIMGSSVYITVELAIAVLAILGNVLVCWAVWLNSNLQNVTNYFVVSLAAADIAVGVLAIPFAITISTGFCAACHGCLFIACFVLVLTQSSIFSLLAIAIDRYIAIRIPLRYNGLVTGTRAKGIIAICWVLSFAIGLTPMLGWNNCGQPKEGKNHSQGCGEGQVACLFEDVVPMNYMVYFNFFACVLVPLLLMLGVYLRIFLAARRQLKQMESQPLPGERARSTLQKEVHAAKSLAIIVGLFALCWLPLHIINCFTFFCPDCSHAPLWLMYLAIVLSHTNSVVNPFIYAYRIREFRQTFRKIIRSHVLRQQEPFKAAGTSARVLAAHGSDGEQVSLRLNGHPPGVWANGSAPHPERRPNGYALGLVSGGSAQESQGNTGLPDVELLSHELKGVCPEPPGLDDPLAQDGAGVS
Description for Adenosine receptor A1: Displacement of [3H]DPCPX from human cloned adenosine A1 receptor expressed in CHOK1 cells by scintillation counting

In general, Ki refers to a dissociation constant, usually derived from enzyme kinetics or from competition with a known ligand. Lower therefore signals a stronger hold on the target. `Cn1c(=O)c2[nH]c(-c3cccc(OCCN4CCOCC4)c3)nc2n(C)c1=O`: the inhibition constant (Ki) is 1400 nM at Adenosine receptor A2a and 2100 nM on Adenosine receptor A1.

Regarding `COc1ccc(-c2nc3c([nH]2)c(=O)n(C)c(=O)n3C)cc1OCCN1CCOCC1`, the Ki on Adenosine receptor A2a was 100 nM; on Adenosine receptor A1, above 100000 nM.

With `Cn1c(=O)c2[nH]c(-c3cccc(OCCN4CCCC4)c3)nc2n(C)c1=O`, the values for the Ki on Adenosine receptor A2a and at Adenosine receptor A1 were 400 nM and 1600 nM, respectively.

In the case of `COc1ccc(-c2nc3c([nH]2)c(=O)n(C)c(=O)n3C)cc1OCCN1CCCCC1`, in the experiment filed under Homo sapiens, the Ratio Ki stood at 38. Moreover, the inhibition constant Ki at Adenosine receptor A2a was 2700 nM; on Adenosine receptor A1, above 100000 nM.

For the molecule `COc1cc(-c2nc3c([nH]2)c(=O)n(C)c(=O)n3C)ccc1OCCN1CCOCC1`, the Ki was 100000 nM at Adenosine receptor A2a and above 100000 nM on Adenosine receptor A1.

Turning to `Cn1c(=O)c2[nH]c(-c3cccc(OCCN4CCCCC4)c3)nc2n(C)c1=O`, the Ki is 800 nM at Adenosine receptor A2a and 2100 nM on Adenosine receptor A1.

For `CCN(CC)CCOc1ccc(-c2nc3c([nH]2)c(=O)n(C)c(=O)n3C)cc1OC`, the Ratio Ki in the experiment listed under Homo sapiens worked out at 100. In addition, the results for the inhibition constant (Ki) at Adenosine receptor A2a and on Adenosine receptor A1 were 1100 nM and above 100000 nM, respectively.

With `CCN(CC)CCOc1cc(-c2nc3c([nH]2)c(=O)n(C)c(=O)n3C)ccc1OC`, the Ratio Ki in the experiment listed under Homo sapiens was determined as 70. The inhibitory constant (Ki) was determined as 600 nM on Adenosine receptor A2a and 43000 nM on Adenosine receptor A1.

Turning to `CCCn1c(=O)c2[nH]c(-c3ccc(OC)cc3O)nc2n(CCC)c1=O`, in experiment [1], the fold change (FC) was 90.

As to `COc1cc(-c2nc3c([nH]2)c(=O)n(C)c(=O)n3C)ccc1OCCN1CCCC1`, the Ratio Ki in the experiment filed under Homo sapiens was 10. Besides, the inhibition constant (Ki) is 1000 nM on Adenosine receptor A2a and 11200 nM on Adenosine receptor A1.

`COc1cc(-c2nc3c([nH]2)c(=O)n(C)c(=O)n3C)ccc1OCCN1CCCCC1`: the Ratio Ki in the experiment filed under Homo sapiens came to 100. For the same molecule, the Ki on Adenosine receptor A2a was 700 nM; at Adenosine receptor A1, above 100000 nM.

As for `CN(C)CCOc1cccc(-c2nc3c([nH]2)c(=O)n(C)c(=O)n3C)c1`, the inhibitory constant (Ki) at Adenosine receptor A2a is 400 nM; on Adenosine receptor A1, 800 nM.

With `COc1ccc(-c2nc3c([nH]2)c(=O)n(C)c(=O)n3C)cc1OCCN(C)C`, the Ratio Ki in the experiment listed under Homo sapiens is 30. For the same molecule, the Ki was found to be 400 nM on Adenosine receptor A2a and 13500 nM at Adenosine receptor A1.

`CCN(CC)CCOc1cccc(-c2nc3c([nH]2)c(=O)n(C)c(=O)n3C)c1`: the Ratio Ki in the experiment filed under Homo sapiens amounted to 140. Further, the Ki came out at 100 nM at Adenosine receptor A2a and 14000 nM on Adenosine receptor A1.

For `COc1cc(-c2nc3c([nH]2)c(=O)n(C)c(=O)n3C)ccc1OCCN(C)C`, the Ratio Ki in the experiment filed under Homo sapiens was 100. In addition, the Ki is 600 nM at Adenosine receptor A2a and above 100000 nM at Adenosine receptor A1.
